In article PMC9532703, “A novel small molecule RK-019 inhibits FGFR2-amplification gastric cancer cell proliferation and induces apoptosis in vitro and in vivo” (Frontiers in Pharmacology, 2022):

Assays:
Test in all cases: Kinase selectivity panel
Type in all cases: biochemical
Conditions in all cases: read-out: Inhibition(%) @ 1 µM RK-019
ACTR2(h) = target: T1, ACTR2(h) (Homo sapiens, UniProt P27037)
T1 construct: purchased Eurofins Discovery Services (KinaseProfiler)
Procedure, shortened: (§1)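 Compound screened at 1 µM against a panel of 422 recombinant human kinases using an in vitro ATP-site competition binding assay; values reported as inhibition ratio.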

ALK6(h) = target: T2, ALK6(h) (Homo sapiens, UniProt O00238)
T2 construct: purchased Eurofins Discovery Services (KinaseProfiler)
T2 sequence (O00238 14-502): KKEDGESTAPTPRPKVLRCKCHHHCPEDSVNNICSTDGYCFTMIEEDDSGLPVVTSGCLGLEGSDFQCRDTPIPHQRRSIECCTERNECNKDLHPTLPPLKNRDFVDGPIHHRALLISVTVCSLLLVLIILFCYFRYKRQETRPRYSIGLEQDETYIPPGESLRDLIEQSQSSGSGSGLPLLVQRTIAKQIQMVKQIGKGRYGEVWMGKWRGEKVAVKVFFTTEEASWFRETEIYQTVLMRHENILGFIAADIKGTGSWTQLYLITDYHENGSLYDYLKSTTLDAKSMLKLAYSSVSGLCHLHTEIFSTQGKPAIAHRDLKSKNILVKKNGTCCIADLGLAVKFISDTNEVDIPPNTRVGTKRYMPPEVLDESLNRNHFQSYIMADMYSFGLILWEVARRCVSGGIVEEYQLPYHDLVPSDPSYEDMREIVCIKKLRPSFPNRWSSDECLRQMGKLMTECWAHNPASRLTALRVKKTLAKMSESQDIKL
Procedure, shortened: as §1

Abl (H396P) (h) = target: T3, Abl (H396P) (h) (Homo sapiens, UniProt P00519, H396P)
T3 construct: purchased Eurofins Discovery Services (KinaseProfiler)
Procedure, shortened: as §1

Abl(T315I)(h) = target: T4, Abl(T315I)(h) (Homo sapiens, UniProt P00519, T315I)
T4 construct: purchased Eurofins Discovery Services (KinaseProfiler)
Procedure, shortened: as §1

Aurora-A(h) = target: T5, Aurora-A(h) (Homo sapiens, UniProt O14965)
T5 construct: purchased Eurofins Discovery Services (KinaseProfiler)
Procedure, shortened: as §1

CDK2/cyclinE(h) = target: T6, CDK2/cyclinE(h) (Homo sapiens, UniProt P24941)
T6 construct: purchased Eurofins Discovery Services (KinaseProfiler)
Procedure, shortened: as §1

CDK9/cyclin T1(h) = target: T7, CDK9/cyclin T1(h) (Homo sapiens, UniProt P50750)
T7 construct: purchased Eurofins Discovery Services (KinaseProfiler)
Procedure, shortened: as §1

CK1γ3(h) = target: T8, CK1γ3(h) (Homo sapiens, UniProt Q9Y6M4)
T8 construct: purchased Eurofins Discovery Services (KinaseProfiler)
T8 sequence (Q9Y6M4 whole entry): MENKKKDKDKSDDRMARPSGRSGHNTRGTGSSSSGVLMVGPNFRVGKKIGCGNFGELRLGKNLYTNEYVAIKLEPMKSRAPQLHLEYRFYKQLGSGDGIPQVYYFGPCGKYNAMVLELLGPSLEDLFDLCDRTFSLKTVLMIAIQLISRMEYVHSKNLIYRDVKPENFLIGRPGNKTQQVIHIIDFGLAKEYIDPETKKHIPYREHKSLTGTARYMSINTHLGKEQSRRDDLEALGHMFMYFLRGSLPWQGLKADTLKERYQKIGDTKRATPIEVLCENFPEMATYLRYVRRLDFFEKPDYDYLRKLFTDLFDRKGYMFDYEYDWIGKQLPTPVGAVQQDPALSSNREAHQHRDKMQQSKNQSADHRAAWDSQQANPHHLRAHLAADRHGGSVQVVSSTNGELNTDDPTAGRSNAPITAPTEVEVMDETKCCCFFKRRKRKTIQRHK
Procedure, shortened: as §1

CLIK1(h) = target: T9, CLIK1(h) (Homo sapiens, UniProt Q8TDR2)
T9 construct: purchased Eurofins Discovery Services (KinaseProfiler)
Procedure, shortened: as §1

CLK3(h) = target: T10, CLK3(h) (Homo sapiens, UniProt P49761)
T10 construct: purchased Eurofins Discovery Services (KinaseProfiler)
Procedure, shortened: as §1

DAPK2(h) = target: T11, DAPK2(h) (Homo sapiens, UniProt Q9UIK4)
T11 construct: purchased Eurofins Discovery Services (KinaseProfiler)
T11 sequence (Q9UIK4 whole entry): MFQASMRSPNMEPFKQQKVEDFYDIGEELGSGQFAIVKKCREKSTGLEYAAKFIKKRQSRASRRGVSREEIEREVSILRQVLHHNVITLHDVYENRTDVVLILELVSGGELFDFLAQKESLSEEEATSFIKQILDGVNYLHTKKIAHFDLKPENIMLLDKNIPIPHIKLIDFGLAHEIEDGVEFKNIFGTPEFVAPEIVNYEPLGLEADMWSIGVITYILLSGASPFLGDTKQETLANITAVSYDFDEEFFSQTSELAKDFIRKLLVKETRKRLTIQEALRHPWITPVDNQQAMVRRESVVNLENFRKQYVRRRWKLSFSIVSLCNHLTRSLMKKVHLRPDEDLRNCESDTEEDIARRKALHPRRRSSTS
Procedure, shortened: as §1

DDR1(h) = target: T12, DDR1(h) (Homo sapiens, UniProt Q08345)
T12 construct: purchased Eurofins Discovery Services (KinaseProfiler)
Procedure, shortened: as §1

DDR2(h) = target: T13, DDR2(h) (Homo sapiens, UniProt Q16832)
T13 construct: purchased Eurofins Discovery Services (KinaseProfiler)
Procedure, shortened: as §1

ErbB2(h) = target: T14, ErbB2(h) (Homo sapiens, UniProt P04626)
T14 construct: purchased Eurofins Discovery Services (KinaseProfiler)
Procedure, shortened: as §1

JNK1α1(h) = target: T15, JNK1α1(h) (Homo sapiens, UniProt P45983)
T15 construct: purchased Eurofins Discovery Services (KinaseProfiler)
Procedure, shortened: as §1

MARK4(h) = target: T16, MARK4(h) (Homo sapiens, UniProt Q96L34)
T16 construct: purchased Eurofins Discovery Services (KinaseProfiler)
Procedure, shortened: as §1

MST4(h) = target: T17, MST4(h) (Homo sapiens, UniProt Q9P289)
T17 construct: purchased Eurofins Discovery Services (KinaseProfiler)
Procedure, shortened: as §1

NIM1(h) = target: T18, NIM1(h) (Homo sapiens, UniProt Q8IY84)
T18 construct: purchased Eurofins Discovery Services (KinaseProfiler)
Procedure, shortened: as §1

NUAK2(h) = target: T19, NUAK2(h) (Homo sapiens, UniProt Q9H093)
T19 construct: purchased Eurofins Discovery Services (KinaseProfiler)
T19 sequence (Q9H093 whole entry): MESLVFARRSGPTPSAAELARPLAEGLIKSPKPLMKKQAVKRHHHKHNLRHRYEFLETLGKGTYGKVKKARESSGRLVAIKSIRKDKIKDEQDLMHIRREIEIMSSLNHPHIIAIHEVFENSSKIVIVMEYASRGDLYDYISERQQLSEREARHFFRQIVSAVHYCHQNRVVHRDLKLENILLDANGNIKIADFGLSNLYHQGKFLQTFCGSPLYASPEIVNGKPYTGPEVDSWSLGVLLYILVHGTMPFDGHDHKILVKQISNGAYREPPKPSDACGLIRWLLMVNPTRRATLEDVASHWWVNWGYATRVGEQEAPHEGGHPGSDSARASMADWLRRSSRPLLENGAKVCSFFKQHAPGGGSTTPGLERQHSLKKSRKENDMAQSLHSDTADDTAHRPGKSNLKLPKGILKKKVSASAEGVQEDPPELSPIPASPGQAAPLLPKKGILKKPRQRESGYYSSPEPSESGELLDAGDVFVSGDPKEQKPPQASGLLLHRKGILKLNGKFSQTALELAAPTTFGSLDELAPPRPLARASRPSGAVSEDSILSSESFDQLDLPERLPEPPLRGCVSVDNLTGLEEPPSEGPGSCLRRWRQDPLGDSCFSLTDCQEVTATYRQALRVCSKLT
Procedure, shortened: as §1

PASK(h) = target: T20, PASK(h) (Homo sapiens, UniProt Q96RG2)
T20 construct: purchased Eurofins Discovery Services (KinaseProfiler)
Procedure, shortened: as §1

[1] = target: T21, PI3 Kinase (p110a(E542K)/p85a)(h) (Homo sapiens, UniProt P42336, E542K)
T21 construct: purchased Eurofins Discovery Services (KinaseProfiler)
Procedure, shortened: as §1

[2] = target: T22, PI3 Kinase (p110d/p85a)(h) (Homo sapiens, UniProt O00329)
T22 construct: purchased Eurofins Discovery Services (KinaseProfiler)
T22 sequence (O00329 whole entry): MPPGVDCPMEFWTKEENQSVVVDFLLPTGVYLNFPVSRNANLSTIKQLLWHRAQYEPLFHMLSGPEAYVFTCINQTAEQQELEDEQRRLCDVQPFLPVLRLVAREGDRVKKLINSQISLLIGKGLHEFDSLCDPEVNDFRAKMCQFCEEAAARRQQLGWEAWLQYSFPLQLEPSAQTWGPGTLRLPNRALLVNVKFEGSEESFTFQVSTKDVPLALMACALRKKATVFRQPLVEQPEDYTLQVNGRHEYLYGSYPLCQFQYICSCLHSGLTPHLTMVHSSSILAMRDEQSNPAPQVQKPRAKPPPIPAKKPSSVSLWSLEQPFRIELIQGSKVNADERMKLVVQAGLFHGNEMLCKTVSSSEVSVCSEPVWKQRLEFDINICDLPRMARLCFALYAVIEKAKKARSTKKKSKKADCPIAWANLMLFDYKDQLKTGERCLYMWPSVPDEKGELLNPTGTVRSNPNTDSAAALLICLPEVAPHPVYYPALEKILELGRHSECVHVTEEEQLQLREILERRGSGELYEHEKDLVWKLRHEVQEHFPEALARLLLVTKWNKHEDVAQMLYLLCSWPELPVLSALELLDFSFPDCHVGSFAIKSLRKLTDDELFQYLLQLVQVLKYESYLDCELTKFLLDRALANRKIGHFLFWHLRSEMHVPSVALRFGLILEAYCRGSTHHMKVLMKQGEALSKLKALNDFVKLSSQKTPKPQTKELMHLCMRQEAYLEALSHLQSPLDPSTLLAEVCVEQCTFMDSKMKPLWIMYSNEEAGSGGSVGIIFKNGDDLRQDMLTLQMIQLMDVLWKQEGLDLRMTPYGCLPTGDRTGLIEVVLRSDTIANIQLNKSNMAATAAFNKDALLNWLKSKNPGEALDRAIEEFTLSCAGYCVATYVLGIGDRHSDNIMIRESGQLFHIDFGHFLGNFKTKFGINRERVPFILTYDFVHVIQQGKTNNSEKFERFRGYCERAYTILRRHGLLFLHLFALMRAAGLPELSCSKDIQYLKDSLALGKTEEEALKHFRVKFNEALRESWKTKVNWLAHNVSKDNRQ
T22 sequence (P27986 whole entry partner): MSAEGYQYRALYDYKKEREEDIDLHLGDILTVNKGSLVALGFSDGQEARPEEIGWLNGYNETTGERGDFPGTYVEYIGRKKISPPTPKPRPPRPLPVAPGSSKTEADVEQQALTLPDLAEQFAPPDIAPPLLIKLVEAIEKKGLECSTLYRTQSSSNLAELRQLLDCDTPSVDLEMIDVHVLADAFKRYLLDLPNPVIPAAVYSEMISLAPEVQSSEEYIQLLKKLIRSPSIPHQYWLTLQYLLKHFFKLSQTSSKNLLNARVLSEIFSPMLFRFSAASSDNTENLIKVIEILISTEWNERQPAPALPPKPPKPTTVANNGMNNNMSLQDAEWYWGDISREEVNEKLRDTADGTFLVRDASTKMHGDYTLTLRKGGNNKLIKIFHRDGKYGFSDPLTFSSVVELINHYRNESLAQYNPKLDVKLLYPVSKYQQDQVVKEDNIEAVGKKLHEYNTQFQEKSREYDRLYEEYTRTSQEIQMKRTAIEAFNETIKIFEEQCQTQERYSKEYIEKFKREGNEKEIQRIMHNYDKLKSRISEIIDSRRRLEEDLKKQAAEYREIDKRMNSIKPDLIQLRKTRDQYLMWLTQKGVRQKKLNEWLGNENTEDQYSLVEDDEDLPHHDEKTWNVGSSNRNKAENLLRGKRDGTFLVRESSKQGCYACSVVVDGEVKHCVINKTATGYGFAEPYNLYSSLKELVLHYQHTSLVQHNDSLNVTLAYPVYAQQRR
Procedure, shortened: as §1

PKAcβ(h) = target: T23, PKAcβ(h) (Homo sapiens, UniProt P22694)
T23 construct: purchased Eurofins Discovery Services (KinaseProfiler)
Procedure, shortened: as §1

PKCβI(h) = target: T24, PKCβI(h) (Homo sapiens, UniProt P05771)
T24 construct: purchased Eurofins Discovery Services (KinaseProfiler)
Procedure, shortened: as §1

PKCγ(h) = target: T25, PKCγ(h) (Homo sapiens, UniProt P05129)
T25 construct: purchased Eurofins Discovery Services (KinaseProfiler)
Procedure, shortened: as §1

PKD2(h) = target: T26, PKD2(h) (Homo sapiens, UniProt Q9BZL6)
T26 construct: purchased Eurofins Discovery Services (KinaseProfiler)
Procedure, shortened: as §1

PKR(h) = target: T27, PKR(h) (Homo sapiens, UniProt P19525)
T27 construct: purchased Eurofins Discovery Services (KinaseProfiler)
Procedure, shortened: as §1

Plk1(h) = target: T28, Plk1(h) (Homo sapiens, UniProt P53350)
T28 construct: purchased Eurofins Discovery Services (KinaseProfiler)
Procedure, shortened: as §1

PrKX(h) = target: T29, PrKX(h) (Homo sapiens, UniProt P51817)
T29 construct: purchased Eurofins Discovery Services (KinaseProfiler)
Procedure, shortened: as §1

Rsk2(h) = target: T30, Rsk2(h) (Homo sapiens, UniProt P51812)
T30 construct: purchased Eurofins Discovery Services (KinaseProfiler)
Procedure, shortened: as §1

SAPK2b(h) = target: T31, SAPK2b(h) (Homo sapiens, UniProt Q15759)
T31 construct: purchased Eurofins Discovery Services (KinaseProfiler)
T31 sequence (Q15759 whole entry): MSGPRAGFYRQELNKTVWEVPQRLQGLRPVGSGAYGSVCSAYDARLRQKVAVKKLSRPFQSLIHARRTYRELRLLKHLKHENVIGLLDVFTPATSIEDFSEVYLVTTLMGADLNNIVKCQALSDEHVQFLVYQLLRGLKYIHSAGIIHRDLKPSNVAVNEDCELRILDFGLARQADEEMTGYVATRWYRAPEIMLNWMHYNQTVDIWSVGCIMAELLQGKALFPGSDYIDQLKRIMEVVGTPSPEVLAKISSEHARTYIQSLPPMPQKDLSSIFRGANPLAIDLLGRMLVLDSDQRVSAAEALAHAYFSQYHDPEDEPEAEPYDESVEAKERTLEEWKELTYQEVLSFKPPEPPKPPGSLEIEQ
Procedure, shortened: as §1

SAPK4(h) = target: T32, SAPK4(h) (Homo sapiens, UniProt O15264)
T32 construct: purchased Eurofins Discovery Services (KinaseProfiler)
Procedure, shortened: as §1

Snk(h) = target: T33, Snk(h) (Homo sapiens, UniProt Q9NYY3)
T33 construct: purchased Eurofins Discovery Services (KinaseProfiler)
Procedure, shortened: as §1

TTBK1(h) = target: T34, TTBK1(h) (Homo sapiens, UniProt Q5TCY1)
T34 construct: purchased Eurofins Discovery Services (KinaseProfiler)
Procedure, shortened: as §1

WNK3(h) = target: T35, WNK3(h) (Homo sapiens, UniProt Q9BYP7)
T35 construct: purchased Eurofins Discovery Services (KinaseProfiler)
Procedure, shortened: as §1

ZIPK(h) = target: T36, ZIPK(h) (Homo sapiens, UniProt O43293)
T36 construct: purchased Eurofins Discovery Services (KinaseProfiler)
T36 sequence (O43293 whole entry): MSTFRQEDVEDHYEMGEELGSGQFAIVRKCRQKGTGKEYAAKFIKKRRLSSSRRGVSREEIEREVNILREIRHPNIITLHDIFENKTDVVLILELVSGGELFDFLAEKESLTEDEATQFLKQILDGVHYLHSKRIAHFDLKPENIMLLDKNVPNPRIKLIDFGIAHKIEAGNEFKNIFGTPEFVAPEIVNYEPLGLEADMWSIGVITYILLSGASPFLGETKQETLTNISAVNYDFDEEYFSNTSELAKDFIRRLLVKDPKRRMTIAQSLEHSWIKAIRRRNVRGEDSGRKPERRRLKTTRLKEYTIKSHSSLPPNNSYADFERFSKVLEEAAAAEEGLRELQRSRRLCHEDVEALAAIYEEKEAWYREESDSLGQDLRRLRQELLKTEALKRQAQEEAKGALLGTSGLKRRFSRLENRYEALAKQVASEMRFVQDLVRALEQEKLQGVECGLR
Procedure, shortened: as §1

cKit(V654A)(h) = target: T37, cKit(V654A)(h) (Homo sapiens, UniProt P10721, V654A)
T37 construct: purchased Eurofins Discovery Services (KinaseProfiler)
Procedure, shortened: as §1

T1 sequence (P27037 20-513): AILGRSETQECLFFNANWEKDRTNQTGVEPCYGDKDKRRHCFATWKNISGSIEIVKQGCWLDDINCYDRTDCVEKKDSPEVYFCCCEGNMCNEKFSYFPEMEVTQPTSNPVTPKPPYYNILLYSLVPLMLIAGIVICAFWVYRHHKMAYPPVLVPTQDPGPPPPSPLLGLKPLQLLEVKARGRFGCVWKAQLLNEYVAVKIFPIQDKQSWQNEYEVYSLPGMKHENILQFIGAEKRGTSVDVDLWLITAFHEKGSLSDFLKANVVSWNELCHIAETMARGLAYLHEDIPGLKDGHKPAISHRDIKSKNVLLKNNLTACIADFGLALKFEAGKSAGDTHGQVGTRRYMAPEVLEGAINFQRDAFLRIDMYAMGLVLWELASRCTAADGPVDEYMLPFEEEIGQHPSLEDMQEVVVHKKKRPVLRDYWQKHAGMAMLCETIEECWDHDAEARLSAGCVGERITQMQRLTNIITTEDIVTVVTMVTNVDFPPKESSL

Compound: COc1cc(OC)cc(N(CCN[C@H](C)CO)c2ccc3ncc(-c4cnn(C)c4)c(=O)n3c2)c1 [RK-019, (R)-7-((3,5-dimethoxyphenyl) (2-((1-hydroxypropan-2-yl)amino)ethyl)amino)-3-(1-methyl-1H-pyrazol-4-yl)-4H-pyrido [1,2-a]pyrimidin-4-one]
- activity at 1 µM (ACTR2(h)): 85%
- activity at 1 µM (ALK6(h)): 107%
- activity at 1 µM (Abl (H396P) (h)): 49%
- activity at 1 µM (Abl(T315I)(h)): 66%
- activity at 1 µM (Aurora-A(h)): 133%
- activity at 1 µM (CDK2/cyclinE(h)): 123%
- activity at 1 µM (CDK9/cyclin T1(h)): 99%
- activity at 1 µM (CK1γ3(h)): 87%
- activity at 1 µM (CLIK1(h)): 102%
- activity at 1 µM (CLK3(h)): 102%
- activity at 1 µM (DAPK2(h)): 97%
- activity at 1 µM (DDR1(h)): 19%
- activity at 1 µM (DDR2(h)): 109%
- activity at 1 µM (ErbB2(h)): 94%
- activity at 1 µM (JNK1α1(h)): 96%
- activity at 1 µM (MARK4(h)): 106%
- activity at 1 µM (MST4(h)): 90%
- activity at 1 µM (NIM1(h)): 103%
- activity at 1 µM (NUAK2(h)): 90%
- activity at 1 µM (PASK(h)): 96%
- activity at 1 µM [1]: 98%
- activity at 1 µM [2]: 93%
- activity at 1 µM (PKAcβ(h)): 98%
- activity at 1 µM (PKCβI(h)): 102%
- activity at 1 µM (PKCγ(h)): 92%
- activity at 1 µM (PKD2(h)): 98%
- activity at 1 µM (PKR(h)): 50%
- activity at 1 µM (Plk1(h)): 117%
- activity at 1 µM (PrKX(h)): 98%
- activity at 1 µM (Rsk2(h)): 149%
- activity at 1 µM (SAPK2b(h)): 94%
- activity at 1 µM (SAPK4(h)): 112%
- activity at 1 µM (Snk(h)): 109%
- activity at 1 µM (TTBK1(h)): 90%
- activity at 1 µM (WNK3(h)): 110%
- activity at 1 µM (ZIPK(h)): 96%
- activity at 1 µM (cKit(V654A)(h)): 104%
